From ChEMBL document CHEMBL1201862, “PubChem BioAssay data set” (2004)
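48-hour exposure; five concentrations; linearly interpolated endpoints. Here, GI50 denotes the concentration required for 50% inhibition of growth.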 The source made the active and inactive calls. No stated cut-off is given here; in the data, active = GI50 up to about 1.1 µM and inactive = higher.

Legend:
Test in all cases: growth of human tumour cells (NCI), 48 h
HCT-116 = tested on: HCT-116
HCC 2998 = tested on: HCC 2998
NCI-H226 = tested on: NCI-H226
Malme-3M = tested on: Malme-3M
NCI-H23 = tested on: NCI-H23
SNB-19 = tested on: SNB-19
KM12 = tested on: KM12
SK-MEL-28 = tested on: SK-MEL-28
NCI-H460 = tested on: NCI-H460
UACC-257 = tested on: UACC-257
DU-145 = tested on: DU-145
MDA-N = tested on: MDA-N
M14 = tested on: M14
COLO 205 = tested on: COLO 205
HOP-92 = tested on: HOP-92
MOLT-4 = tested on: MOLT-4
OVCAR-8 = tested on: OVCAR-8
EKVX = tested on: EKVX
CAKI-1 = tested on: CAKI-1
SF-295 = tested on: SF-295

Row | SMILES | GI50 (HCT-116) | GI50 (HCC 2998) | GI50 (NCI-H226) | GI50 (Malme-3M) | GI50 (NCI-H23) | GI50 (SNB-19) | GI50 (KM12) | GI50 (SK-MEL-28) | GI50 (NCI-H460) | GI50 (UACC-257) | GI50 (DU-145) | GI50 (MDA-N) | GI50 (M14) | GI50 (COLO 205) | GI50 (HOP-92) | GI50 (MOLT-4) | GI50 (OVCAR-8) | GI50 (EKVX) | GI50 (CAKI-1) | GI50 (SF-295)
1 | Nc1nc(Nc2ccc(Cl)cc2)sc1C(=O)c1cc2ccccc2oc1=O | 23.1 µM (inactive) | 41.9 µM (inactive) | > 100 µM (inactive) | 19.1 µM (inactive) | 2.93 µM (inactive) | > 100 µM (inactive) | 35.2 µM (inactive) | 46.5 µM (inactive) | 31 µM (inactive) | 69.5 µM (inactive) | 74.6 µM (inactive) | 37.3 µM (inactive) | 68.9 µM (inactive) | 59.6 µM (inactive) | 53.2 µM (inactive) |  |  |  |  | 
2 | CCN(CC)CCOc1ccc(N2Cc3ccccc3C2=O)cc1 | > 10 µM (inactive) | > 10 µM (inactive) | > 10 µM (inactive) | > 10 µM (inactive) | > 10 µM (inactive) | > 10 µM (inactive) |  | > 10 µM (inactive) | 7.28 µM (inactive) | > 10 µM (inactive) | > 10 µM (inactive) | > 10 µM (inactive) | > 10 µM (inactive) | > 10 µM (inactive) | > 10 µM (inactive) | > 10 µM (inactive) | > 10 µM (inactive) | > 10 µM (inactive) | > 10 µM (inactive) | > 10 µM (inactive)
3 | COc1ccc(OC/C(N)=N/NC(=O)c2ccncc2)cc1 | > 100 µM (inactive) | > 100 µM (inactive) |  | > 100 µM (inactive) | > 100 µM (inactive) | > 100 µM (inactive) | > 100 µM (inactive) | > 100 µM (inactive) | > 100 µM (inactive) | > 100 µM (inactive) | > 100 µM (inactive) | > 100 µM (inactive) | > 100 µM (inactive) | > 100 µM (inactive) | > 100 µM (inactive) | > 100 µM (inactive) | > 100 µM (inactive) | > 100 µM (inactive) | > 100 µM (inactive) | > 100 µM (inactive)
4 | Cc1ccc(-n2cc(-c3ccc(Cl)cc3)c3c2N=CN2N=C(c4cccs4)NC32)cc1 (centres undefined) | 5.13 µM (inactive) | 57 µM (inactive) | 19.3 µM (inactive) | 38.4 µM (inactive) | 15.3 µM (inactive) | 17.9 µM (inactive) |  | > 100 µM (inactive) | 5.31 µM (inactive) | 38.9 µM (inactive) | > 100 µM (inactive) | 26.8 µM (inactive) | 18.7 µM (inactive) | 6.71 µM (inactive) | 7.64 µM (inactive) |  | 6.46 µM (inactive) | 18.1 µM (inactive) | 16 µM (inactive) | 9.18 µM (inactive)
5 | O=C(O)c1cnc2[nH]ccn2c1=O | > 100 µM (inactive) | > 100 µM (inactive) | > 100 µM (inactive) | > 100 µM (inactive) | > 100 µM (inactive) | > 100 µM (inactive) |  | > 100 µM (inactive) | > 100 µM (inactive) | > 100 µM (inactive) | > 100 µM (inactive) | > 100 µM (inactive) | > 100 µM (inactive) | > 100 µM (inactive) | > 100 µM (inactive) | > 100 µM (inactive) | > 100 µM (inactive) | > 100 µM (inactive) |  | > 100 µM (inactive)
6 | CN(C)c1ccc(-c2c(C#N)c(S)n(NS(=O)(=O)c3ccccc3)c(=O)c2C#N)cc1 | 27.2 µM (inactive) | 70.8 µM (inactive) |  | 26.5 µM (inactive) | 30.8 µM (inactive) | 48.1 µM (inactive) | 16.2 µM (inactive) | 36.1 µM (inactive) |  | 45.8 µM (inactive) | 63.5 µM (inactive) | 25 µM (inactive) | 27.6 µM (inactive) | 38.5 µM (inactive) | 25 µM (inactive) | 16.6 µM (inactive) | 16.6 µM (inactive) | 32.6 µM (inactive) | 23.8 µM (inactive) | 31 µM (inactive)
7 | COc1ccccc1CCN1CCN(CCCc2ccccc2)CC1 | 33 µM (inactive) | 47.3 µM (inactive) | 72.9 µM (inactive) | > 100 µM (inactive) |  | > 100 µM (inactive) | 62.7 µM (inactive) | > 100 µM (inactive) | 54.3 µM (inactive) | 60.4 µM (inactive) | > 100 µM (inactive) | 58.9 µM (inactive) | 24.2 µM (inactive) | 28.5 µM (inactive) | 0.524 µM (active) | 89.7 µM (inactive) | > 100 µM (inactive) | > 100 µM (inactive) | 91 µM (inactive) | 52.5 µM (inactive)
8 | [N-]=[N+]=CC(=O)OCC1SCCCS1 | > 100 µM (inactive) | > 100 µM (inactive) | > 100 µM (inactive) | > 100 µM (inactive) | > 100 µM (inactive) | > 100 µM (inactive) | > 100 µM (inactive) | > 100 µM (inactive) | 74.6 µM (inactive) | > 100 µM (inactive) | > 100 µM (inactive) | > 100 µM (inactive) |  | > 100 µM (inactive) | > 100 µM (inactive) | > 100 µM (inactive) |  | > 100 µM (inactive) | 50.4 µM (inactive) | > 100 µM (inactive)
9 | O=c1c2ccccc2nc(N/N=C/c2ccc(Cl)cc2)n1-c1ccccc1 | > 100 µM (inactive) | > 100 µM (inactive) | > 100 µM (inactive) | > 100 µM (inactive) | > 100 µM (inactive) | 36.5 µM (inactive) |  | > 100 µM (inactive) | 75 µM (inactive) | > 100 µM (inactive) | > 100 µM (inactive) | 50.8 µM (inactive) | > 100 µM (inactive) | > 100 µM (inactive) | 98.6 µM (inactive) | > 100 µM (inactive) | 77.1 µM (inactive) | > 100 µM (inactive) | > 100 µM (inactive) | > 100 µM (inactive)
10 | COc1cc(/C=C/c2ccc(O)c(OC)c2)cc(OC)c1 | 27.5 µM (inactive) | 49.7 µM (inactive) |  | 30.7 µM (inactive) | 26.5 µM (inactive) | 36.4 µM (inactive) | 20.8 µM (inactive) | 33.1 µM (inactive) | 19 µM (inactive) | 24.8 µM (inactive) | 23.1 µM (inactive) | 17.4 µM (inactive) | 21 µM (inactive) | > 100 µM (inactive) | 12.3 µM (inactive) | 20.9 µM (inactive) | 37.5 µM (inactive) | 28.2 µM (inactive) | 27.1 µM (inactive) | 17.7 µM (inactive)
11 | CC(C)(C)C(=O)Nc1cccc(-c2ccc[nH]2)n1 | > 100 µM (inactive) | > 100 µM (inactive) | > 100 µM (inactive) | > 100 µM (inactive) | > 100 µM (inactive) | > 100 µM (inactive) | > 100 µM (inactive) | > 100 µM (inactive) | > 96.8 µM (inactive) | > 84.9 µM (inactive) | > 100 µM (inactive) | > 100 µM (inactive) | > 100 µM (inactive) | > 100 µM (inactive) | > 100 µM (inactive) |  | > 100 µM (inactive) | > 85.7 µM (inactive) | > 100 µM (inactive) | 99.8 µM (inactive)
12 | O=C1NC(N2CCCC(CO)C2)=N/C1=C\c1ccc(Cl)cc1 (centres undefined) | > 100 µM (inactive) | 35.9 µM (inactive) | > 100 µM (inactive) | > 100 µM (inactive) | > 100 µM (inactive) | > 100 µM (inactive) | 63.7 µM (inactive) | > 100 µM (inactive) |  | > 100 µM (inactive) | > 100 µM (inactive) | > 100 µM (inactive) | > 100 µM (inactive) | > 100 µM (inactive) | 90.8 µM (inactive) | > 100 µM (inactive) | > 100 µM (inactive) | 49.1 µM (inactive) | > 100 µM (inactive) | > 100 µM (inactive)
13 | NCCN(CCN(C(=O)Nc1ccccc1)c1ccccc1)C(=O)Nc1ccccc1 | 16.3 µM (inactive) | 19.8 µM (inactive) | 32.2 µM (inactive) | 17.1 µM (inactive) | 24.3 µM (inactive) | 28.6 µM (inactive) |  | 19 µM (inactive) | 17.4 µM (inactive) | 19 µM (inactive) | 18.2 µM (inactive) | 20.3 µM (inactive) | 21.3 µM (inactive) | 23 µM (inactive) | 17.4 µM (inactive) | 35.5 µM (inactive) | 23 µM (inactive) | 23.6 µM (inactive) |  | 18.5 µM (inactive)
14 | COc1cc(C2CC(C)(N3CCOCC3)Oc3cc4c(cc32)OCO4)cc(OC)c1OC (centres undefined) | 0.129 µM (active) | 0.427 µM (active) | 5.35 µM (inactive) | 0.0726 µM (active) | 0.209 µM (active) | 0.589 µM (active) | 0.0634 µM (active) |  | 0.156 µM (active) | > 50.1 µM (inactive) | 0.167 µM (active) | 0.0452 µM (active) | 0.421 µM (active) | 0.845 µM (active) | 2.67 µM (inactive) | 0.136 µM (active) | 0.531 µM (active) |  | 0.177 µM (active) | 0.104 µM (active)
15 | CCOc1ccccc1/N=N/C1C(=O)N(C(=O)CC(=O)Nc2ccccc2C)N=C1C (centres undefined) | 44.4 µM (inactive) | > 100 µM (inactive) | > 100 µM (inactive) | > 100 µM (inactive) | 59.7 µM (inactive) |  | > 100 µM (inactive) | > 100 µM (inactive) | 43.7 µM (inactive) |  | 79.3 µM (inactive) | > 100 µM (inactive) | > 100 µM (inactive) | > 100 µM (inactive) | 17.1 µM (inactive) | > 100 µM (inactive) | 39 µM (inactive) | 0.984 µM (active) | > 100 µM (inactive) | 15.9 µM (inactive)
